Measurements as given in patent US20040235747A1, “Methods of treating and/or preventing autoimmune diseases” (Ramot At Tel-Aviv University Ltd., priority 2003, published 2004).

How the values were obtained:
[1] = test system: MOG-induced EAE mice; experiment: MOG-induced chronic autoimmune encephalomyelitis (EAE), clinical score; type: in vivo, C57/b mice; conditions: NAP intranasal 0.1 microgram/mouse daily; day 11 on, P<0.01, t-test, vs control mixture without NAP (FIG. 1)
[2] = test system: splenocytes; experiment: Proliferative T-cell response of splenocytes (thymidine incorporation) from MOG-induced EAE mice; type: cell-based, mouse
Source text: FIG. 2 illustrates the thymidine incorporation into splenocytes in a MOG-induced mouse model in the presence (filled circles) or absence (open circles) of NAP.
An additional experiment included proliferative T-cell response performed as described by Offen et al., supra.

Substance: Asn-Ala-Pro-Val-Ser-Ile-Pro-Gln [NAP]
- clinical outcome (clinical manifestations of EAE, score 0-6) [1]: significantly improved the clinical outcome
- proliferative response of splenocytes (cell proliferation, immune response) ([2]; MS model treated with NAP compared to untreated, P<0.01 (FIG. 2)): much reduced
- effect of added MOG on splenocyte proliferation ([2]; splenocytes of NAP-treated animals, MOG up to 25 micrograms, untreated splenocytes showed increased proliferation even at 2 micrograms/well): no effect
